IC50 and R/S data for 7 molecules are collected here from US20110098180A1, “Herbicide-Resistant Plants, And Polynucleotides And Methods For Providing Same” (United States Department of Agriculture, priority 2002, published 2011).

What all share (assay): Cross resistance to bleaching herbicides, in vitro PDS inhibition, non-His-tagged (Table 2)
Assay [1] has as its target hydrilla PDS Arg^304 → Cysteine (Hydrilla verticillata, UniProt Q66PY0, R304C). It counts as biochemical. The note with it: Cysteine at 304; construct in frame with LacZalpha-ccdB, non-His-tagged; read-out: I50. The protocol:
(§1) The expression constructs in Table 2 were derived from an original clone of the susceptible PDS gene from Hydrilla and then the Arg^304 was mutated to the listed amino acid. Expression was under the control of the lac promoter but in frame with the initiation codon of the LacZalpha-ccdB gene in the pCR4-TOPO vector (Invitrogen Inc., CA, Cat. #K4575-01).
(§2) All mutagenesis was performed, unless stated otherwise, using the TOPO-vector containing the wildtype (H4) PDS-sequence, which was extracted from an overnight culture with the Qiagen Plasmid Prep Kit as described above. The amount of the extracted plasmid was diluted to 10 ng/μl and used as template in a mutagenesis-procedure using the QuikChange Site-directed Mutagenesis Kit (Stratagene, Calif., #200518). The design of the mutagenesis-primers was conducted according to the manufacturers protocol to enable the specific change of Arg^304-codon to code for the desired amino acid. Primers (purchased from MWG-Biotech) and their introduced amino acid change are listed below with the changed codon underlined:
(§3) The reactions were performed according to the manufacturers protocol. Reactions were set up in MicroAmp-tubes on ice with 38 μl ddH2O, 5 μl 10× reaction buffer, 2 μl plasmid (10 ng/μl), 1.25 μl forward-mutagenesis primer (100 ng/μl), 1.25 μl of reverse mutagenesis primer (100 ng/μl), 1 μl dNTP-mix and 1 μl PfuTurboDNA polymerase (2.5 U/μl). The reactions were placed in a PE 9700 thermal cycler and heated to 95° C. for 30 sec followed by 12 rounds at 95° C. for 30 sec, 55° C. for 1 min and 68° C. for 12 min. The PCR was followed by a DpnI-digestion and transformation in XL1-Blue supercompetent cells as described in the manual. 4-6 resulting colonies were grown overnight in LB-medium with kanamycin and plasmid DNA was isolated as described above. The plasmid was used as template for sequencing with M13 and internal PDS-primers as described above on a LiCOR-system. Sequences were assembled and analyzed using Seqman. Introduced mutations were identified and plasmids carrying the desired mutation(s) were transferred into competent TOP10-cells, using the transformation protocol from the TOPO TA Cloning Kit. Resulting colonies were grown overnight in Wu-broth with kanamycin, aliquoted and stored at −80° C. until further use. 1 ml of Wu-cultures was used to start 1-L LB-cultures with kanamycin as described before, to express active PDS-enzyme for testing as described.
(§4) Phytoene desaturase activity and its inhibition by herbicides was determined using an in vitro system using components derived from the in vivo production of phytoene and phytoene desaturase proteins. All mutations described in Examples 3 and 4 were tested. […] The clones were used for the heterologous expression of Hydrilla-PDS-enzyme. In particular, bacterial cultures were grown from single colonies overnight in Wu-broth (6.27 g/L K2HPO4, 1.8 g/L KH2PO4, 0.5 g/L Na-citrate, 0.9 g/L (NH4)2SO4, 10 g/L tryptone, 5 g/L yeast extract, 10 g/L NaCl, 44 ml/L glycerol, 0.1 mM MgSO4, pH 7.2) with kanamycin. 1-mL was aliquoted in centrifuge tube and stored at −80° C. For expression, 1 L LB-medium with kanamycin was inoculated with 1-mL Wu-culture and grown for 24 h at 37° C. to stationary phase with shaking at 200 rpm. The cells were collected by centrifugation at 2000×g. All of the following steps were done at 4° C. unless otherwise noted. Active soluble PDS enzyme was extracted by lysing the transformed E. coli cells using a French Press at 20,000 psi in assay buffer consisting of 100 mM Tris-HCl, pH 7.2, 10 mM magnesium-chloride, 0.1 mM NADP, 0.1 mM FAD, 10 mM cysteine, 5 mM DTT, 1 mM aminocaproic acid, and 1 μg/ml leupeptin. The soluble fraction containing PDS activity was obtained by centrifugation for 10 min at 1200×g. After 24 h they were centrifuged down and used in PDS enzyme activity assays as described below.

The subject of assay [2] is hydrilla PDS Arg^304 → Cysteine. It is filed as biochemical, Hydrilla verticillata. The following applies: Cysteine at 304 relative to Arginine; Table 2. The method, then:
as §1, §2, §3, §4

The target in assay [3] is hydrilla PDS Arg^304 → Histidine (Hydrilla verticillata, UniProt Q66PY0, R304H). It is filed as biochemical. The note with it: Histidine at 304; construct in frame with LacZalpha-ccdB, non-His-tagged; read-out: I50. The method, then:
as §1, §2, §3, §4

For assay [4], the system named is hydrilla PDS Arg^304 → Histidine. It is filed as biochemical, Hydrilla verticillata. The following applies: Histidine at 304 relative to Arginine; Table 2. The protocol: as §1, §2, §3, §4
Assay [5] concerns hydrilla PDS Arg^304 → Serine. It counts as biochemical, Hydrilla verticillata. The following applies: Serine at 304 relative to Arginine; Table 2. The method, then:
as §1, §2, §3, §4

The target of assay [6] is hydrilla PDS position 304 Arginine (wildtype) (Hydrilla verticillata, UniProt Q66PY0). It is filed as biochemical. The following applies: for R/S: Arginine at 304 (reference), Table 2; for IC50: Arginine at 304, construct in frame with LacZalpha-ccdB, non-His-tagged, read-out: I50. The method, then: as §1, §2, §3, §4
Chain of hydrilla PDS position 304 Arginine (wildtype) (Q66PY0 1-580): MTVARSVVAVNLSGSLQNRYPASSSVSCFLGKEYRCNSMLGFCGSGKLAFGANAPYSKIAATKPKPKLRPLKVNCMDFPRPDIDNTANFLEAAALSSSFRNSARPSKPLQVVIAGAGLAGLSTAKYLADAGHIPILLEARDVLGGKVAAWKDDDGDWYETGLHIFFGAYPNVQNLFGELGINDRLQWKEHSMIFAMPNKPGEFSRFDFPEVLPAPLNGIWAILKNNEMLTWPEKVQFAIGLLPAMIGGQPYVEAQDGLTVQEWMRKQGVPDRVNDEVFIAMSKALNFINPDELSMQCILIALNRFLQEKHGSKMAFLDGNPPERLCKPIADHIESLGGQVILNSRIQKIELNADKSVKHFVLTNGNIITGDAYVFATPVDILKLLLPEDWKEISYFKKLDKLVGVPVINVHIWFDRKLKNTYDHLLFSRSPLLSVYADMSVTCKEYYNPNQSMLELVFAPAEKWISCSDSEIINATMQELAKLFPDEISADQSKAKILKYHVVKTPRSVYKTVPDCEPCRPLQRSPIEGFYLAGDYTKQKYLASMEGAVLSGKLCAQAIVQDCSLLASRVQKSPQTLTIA

Chain of hydrilla PDS Arg^304 → Cysteine (Hydrilla verticillata, UniProt Q66PY0, R304C) (Q66PY0 1-580 R304C): as the sequence (Q66PY0 1-580) above, with R304C counted along it
Chain of hydrilla PDS Arg^304 → Histidine (Hydrilla verticillata, UniProt Q66PY0, R304H) (Q66PY0 1-580 R304H): as the sequence (Q66PY0 1-580) above, with R304H counted along it

As for `CCC(Oc1ccc(F)c(C(F)(F)F)c1)C(=O)NCc1ccccc1` (centres unmarked) [Beflubutamid], the IC50 in assay [1] is 3.5 µM; in assay [3] it was 3 µM; in assay [6], 4.3 µM. The R/S in assay [2] is 0.8; in assay [4], 0.7; in assay [5], 0.6; in assay [6], 1.
`O=C(Nc1ccc(F)cc1F)c1cccnc1Oc1cccc(C(F)(F)F)c1` [Diflufenican]: the IC50 amounted to 2.1 µM in assay [1], 2 µM in assay [3] and 5.8 µM in assay [6]. Besides, the R/S in assay [2] was determined as 0.4; in assay [4], 0.4; in assay [5], 0.2; in assay [6], 1.
With `O=C1C(Cl)C(CCl)CN1c1cccc(C(F)(F)F)c1` (centres unmarked) [Fluorochloridone], the IC50 in assay [1] was 44.3 µM; in assay [3], 14 µM; in assay [6] it was 12.2 µM. The R/S in assay [2] is on record as 3.6; in assay [4] it was 1.1; in assay [5], 1.9; in assay [6] it was 1.
Consider `CNC1=C(c2cccc(C(F)(F)F)c2)C(=O)C(c2ccccc2)O1` (centres unmarked) [Flurtamone], for which the IC50 in assay [1] was 5.3 µM; in assay [3], 3.3 µM; in assay [6] it was 2.8 µM. In addition, the R/S in assay [2] worked out at 1.9; in assay [4], 1.2; in assay [5], 2.1; in assay [6] it was 1.
`CNc1cnn(-c2cccc(C(F)(F)F)c2)c(=O)c1Cl` [Norflurazon]: the IC50 in assay [1] is 89.4 µM; in assay [3] it was 5 µM; in assay [6] it was 3.1 µM. Also, the R/S in assay [2] is on record as 28.8; in assay [4], 1.6; in assay [5], 17.7.
Consider `O=C(Nc1ccc(F)cc1)c1cccc(Oc2cccc(C(F)(F)F)c2)n1` [Piconilafen, Picolinafen], for which the IC50 in assay [1] was 2.4 µM; in assay [3], 3 µM; in assay [6] it was 5.6 µM. The R/S in assay [2] was 0.4; in assay [4] it was 0.5; in assay [5], 0.4.
For the molecule Fluridone, the R/S in assay [2] is 3.2; in assay [4] it was 2.8; in assay [5], 5.5; in assay [6], 1.
